According to patent US7312302B2, “Compositions for the detection of enzyme activity in biological samples and methods of use thereof” (Oncolmmunin, Inc., priority 1997, dated 2007):
Non-standard residues stand in square brackets, D forms with d. Residues, ends and D or L forms follow the SMILES beside them. No end group written: not given here. *: point of attachment. F1 = 5-carboxytetramethylrhodamine (donor fluorophore); code B = not defined here; code J = not defined here; Nle = CCCC[C@H](N)C(=O)O; Cbz = O=C(OCc1ccccc1)*; F^2 = not defined here; CH2F = FC*

How the values were obtained:
intracellular caspases = assay: Effect of ZVAD(OMe)FMK on in situ caspase activation in dexamethasone-treated thymocytes, flow cytometry at 6 h; assay type: cell-based, mouse; parameters: effect when added before or simultaneously with dexamethasone: dose or concentration left out as unconfirmed
Protocol: Thymocytes were treated with 0.1 mM dexamethasone in vitro and analyzed after a total of 6 h incubation. The apoptosis inhibitor ZVAD(OMe)FMK was added at various times of incubation as indicated, and the caspase activities were assessed by flow cytometry. The results are expressed as ratios of mean fluorescence channel number comparing the activity in the presence of 50 mM ZVAD(OMe)FMK with the uninhibited sample for that substrate.
Single cell suspensions of thymocytes were cultured in RPMI 1640 with 10% FCS at a concentration of 10 6 cells/ml. Dexamethasone (final concentration, 0.1 mM) and ZVAD (OMe)FMK (final concentration, 50 mM) were added at the indicated times from stock solutions in DMSO (100 mM for dexamethasone and 200 mM for ZVAD[OMe]FMK). […] After washing in saline, cells were analyzed by flow cytometry. […] The fluorescence intensity was then monitored for 30-60 min. The initial velocity was calculated from the linear portion of the fluorescence increase. […]
The ability to detect intracellular caspase activities allowed us to study the pharmacological target of the potent apoptosis inhibitor ZVAD(OMe)FMK. […] Activity was assessed by the mean fluorescence channel number of PInegative cells. […] However, when addition of this inhibitor was delayed, the intracellular activity of all caspases detected rose, with no significant selective depletion of activity. […]

thymocytes = conditions: in vitro; cited from earlier work
[1] = intravenously injected antiFas; ischemia-reperfusion stroke model; cited from earlier work
elastase [2] = assay: Elastase digestion of fluorogenic protease indicator, HPLC of cleavage products; assay type: biochemical; conditions: 1 unit of elastase, about 30 minutes, 37° C., pH 8.9
Protocol: Approximately 1 microgram of protease indicator, having the formula F^1-Asp-Ala-Ile-Pro-Nle-Ser-Ile-Pro-Cys-F^2 (SEQ ID No: 184) where F^1 is a donor fluorophore (5′-carboxytetramethylrhodamine (5-TMR)) linked to aspartic acid via the alpha amino group and F^2 is an acceptor fluorophore (rhodamine X acetamide (R492)) linked via the sulfhydryl group of the cysteine was dissolved in a buffer consisting of 50 mM sodium phosphate, 1 mM EDTA at pH 8.9. To this solution was added 1 unit of elastase. The solution was analyzed by HPLC before and about 30 minutes after the addition of elastase. The digestion was carried out at 37° C. The HPLC separated components were monitored at a wavelength of 550 nm which allowed detection of both the 5-TMR fluorophore the R492 fluorophore and at 580 nm which allowed detection of the R492 fluorophore.
In addition, the two predominant peaks in FIGS. 1(b) and 1(c) indicate that the digestion occurred primarily at a single site.

elastase [3] = assay: Emission spectrum change of indicator after addition of elastase (spectrofluorometer); assay type: biochemical; conditions: 37° C., slit widths 4 nm
Protocol: Changes in the emission spectrum of the fluorogenic protease indicator after the addition of an elastase protease was monitored using an SLM spectrofluorometer model 48000 with slit widths set at 4 nm on both the excitation and emission sides. All measurements were carried out at 37° C.
Spectra in FIG. 2 show emission of the fluorogenic protease indicator (a) before and (b) after addition of elastase, while the time dependent increase of the indicator's donor fluorophore emission intensity, after addition of elastase, is plotted in FIG. 3. […] The changes in intensity between treated and untreated indicators are, to some degree, a function of slit widths used, since they represent the signal integrated across the particular slit width. Thus, if wider slit widths were used (e.g. 8 or 16 nm slits) an even greater signal would be provided in response to digestion.

[4] = test system: Jurkat cells, HL-60 cells, human lymphocyte lines, A1.1 cells, murine primary thymocytes; assay: Cellular uptake of substrates by fluorescence microscopy, flow cytometry, HPLC; assay type: cell-based; conditions: viable cells
Protocol: The compounds listed in Table 6 were synthesized and assayed for cellular uptake. Cellular internalization of the substrates was tested using Jurkat cells (a human acute T cell leukemic line), HL-60 cells (a human promyelocytic leukemic line), human lymphocyte lines, A1.1 cells (a murine T-cell line), and murine primary thymocytes. Procedures used in determining substrate uptake by viable cells are provided in Example 6 (for the HPLC procedures), in Example 2 (for the fluorescence microscopic analysis), and in Example 3 (for the flow cytometric analysis) a summary of these analyses with respect to cellular uptake of substrates is presented in this example.
The elastase substrate, Fm—K[F1]DAIPNluSIPK[F1]GY (SEQ ID NO:185), (where F1 was carboxytetramethylrhodamine, Fm was Fmoc, K[F1] was F1 covalently attached through the epsilon amino group of lysine (K), and Fm—K is the Fmoc group covalently attached at the alpha amino group of the amino terminal lysine residue) was used with HL-60 cells. Cells were incubated with various concentrations of elastase substrate ranging from 10 nM to 10 μM for 5 minutes to 60 minutes. Then the cells were diluted 5-fold with RPMI 1640 medium containing 5% serum or with phosphate buffered saline. The samples were centrifuged and washed once more with 1 ml of washing solution. After centrifugation and removal of the washing solution, cell pellets were loosened with about 25 ul of medium and these cells were transferred to a glass capillary. Capillary tubes were then placed on a glass microscope slide and examined under a fluorescence microscope using standard rhodamine filters.
For apoptosis-related protease activity determination, 10 μM concentration of the compounds listed in Example 8 (compound structures 2 through 13) were incubated with cells for 30 min. to 3 hours. The cells were then washed similarly twice. Using glass capillary tubes, the washed cells were transferred and examined under a fluorescence microscope.
(§1) The concentration of substrates used in flow cytometric analysis was 10 M in RPMI1640 medium containing 4 to 10% fetal calf serum. Cell densities during incubation with the chosen substrates ranged from 50,000 cells per ml to 4,000,000 per ml. Incubation times were from 30 min. to 3 hours at 37° C. and incubation volumes were 50 μL to 2 ml. After incubation with substrate for 30 to 60 min. cell suspensions were diluted 10-fold with ice cold Hank's Buffered Saline Solution (HBSS). This filtered cell suspension was then subjected to flow cytometric analysis using a 488 nm excitation source. Becton Dickenson, Inc.'s flow cytometer, FacSort, was used in the flow cytometric analysis. Typically, 10,000 to 30,000 events per sample were collected.

CPP32 protease = biological target: T1, CPP32 protease (Homo sapiens, UniProt P42574); assay: Flow cytometric analysis of intracellular CPP32 protease activity in anti-Fas activated Jurkat cells; assay type: cell-based
T1 construct: served as a direct measure of the intracellular CPP32 protease activity; endogenous in cells
T1 sequence (P42574 29-277): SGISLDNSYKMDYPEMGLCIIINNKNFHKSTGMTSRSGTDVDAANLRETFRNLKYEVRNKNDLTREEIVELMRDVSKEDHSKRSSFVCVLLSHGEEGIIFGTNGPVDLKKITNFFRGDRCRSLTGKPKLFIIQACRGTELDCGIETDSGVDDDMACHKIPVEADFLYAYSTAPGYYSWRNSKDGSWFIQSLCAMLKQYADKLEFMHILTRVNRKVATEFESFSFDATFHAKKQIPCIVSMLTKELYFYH
Protocol: as §1, with “Typically, 10,000 to 30,000 events per sample were collected.” left out
Control cells without substrate incubation and the sample with the greatest expected fluorescence signals were used to set the instrument detector parameters. For example after 15 minutes incubation of Jurkat cells with substrate compound #11 Fm-CGD2D: Fm—K[F1]DBJGDEVDGIDGJPK[F1]GY (SEQ ID NO: 202, where F1 was carboxytetramethylrhodamine; Fm was Fmoc, K[F1] was F1 covalently attached through the epsilon amino group of lysine (K), Nlu was norleucine, B was aminoisobutyric acid, and J was epsilon-aminocaproic acid) an increase of about 10 channels indicating cellular uptake of the substrates was measured. […] As much as a ten-fold increase in fluorescence intensity was observed. […]

In the case of `COC(=O)C[C@H](NC(=O)[C@H](C)NC(=O)[C@@H](NC(=O)OCc1ccccc1)C(C)C)C(=O)CF` [ZVAD(OMe)FMK, carbobenzoxyvalylalanylaspartyl(bmethyl ester)fluoromethyl ketone] (Cbz-Val-Ala-Asp(OMe)-CH2F), the “effect of pretreatment followed by washing before dexamethasone addition” value (intracellular caspases) is given as “minimal inhibition”, the “effect when added before or simultaneously with dexamethasone” value (intracellular caspases) is given as “blocks apoptosis” and the “block of dexamethasone-induced thymocyte apoptosis” value (thymocytes) is given as “specifically blocks”. For the same molecule, the protection of mice [1] was “protect mice from the lethal effects”.

With “F^1-Asp-Ala-Ile-Pro-Nle-Ser-Ile-Pro-Cys-F^2 (DAIP[Nle]SIPC-{F^2}; not fully specified (residue 9, N-terminus); printed as F1-Asp-Ala-Ile-Pro-Nle-Ser-Ile-Pro-Cys-F2; reading uncertain) [D-NorFES-A, F1 5'-carboxytetramethylrhodamine donor, F2 rhodamine X acetamide acceptor]” the “degree of cleavage by elastase (HPLC)” value (elastase [2]) was “complete digestion”, the “increase in fluorescence at 589 nm after treatment with elastase” value (elastase [3]) was greater than 10 fold and the “increase in fluorescence within the first 1000 seconds of exposure to the protease” value (elastase [3]) was greater than 5 fold.

With “Fm-K[F1]DBJGDEVDGIDGJPK[F1]GY (K(F1)D[code B][code J]GDEVDGIDG[code J]PK(F1)GY; not fully specified (N-terminus); printed as Fm-K[F1]DBJGDEVDGIDGJPK[F1]GY; reading uncertain) [Compound 11]” the “cellular uptake (Table 6)” value [4] was “efficient cellular uptake”, the “increase in fluorescence intensity in activated cells” value (CPP32 protease; 1 μg/ml anti-Fas antibody CH11 for 1 to 6 hours) was “ten-fold” and the “increase in channels indicating cellular uptake” value (CPP32 protease; 15 minutes incubation) was “about 10 channels”.
